This is an account of results in patent US12364786B2, “Polymer particles” (Terumo Corporation, priority 2016, dated 2025).

A short description of this data set: In vitro elution of pharmaceutical agents from particles (Sotax USP 4 dissolution apparatus, HPLC). The format is physicochemical. As to the method: For in vitro elution testing, drug was loaded on 1 mL samples of microspheres of approximately 400±100 micron diameter. Microsphere aliquots were loaded with 37.5 mg of doxorubicin in water or 50 mg of irinotecan in citrate buffer. Samples were incubated for 18 hours. Drug was eluted from the samples in a Sotax USP 4 dissolution apparatus. Samples were taken at incremental time intervals and analyzed by high performance liquid chromatography. Peak area was recorded (FIG. 4). Percent and concentration of drug eluted were calculated for each time interval.

The mark [1] stands for this setting: 1 mL microsphere sample (approximately 400±100 micron diameter) loaded with 37.5 mg doxorubicin in water.
Setting [2] is: 1 mL microsphere sample (approximately 400±100 micron diameter) loaded with 50 mg irinotecan in citrate buffer.

As to `COc1cccc2c1C(=O)c1c(O)c3c(c(O)c1C2=O)C[C@@](O)(C(=O)CO)C[C@@H]3O[C@H]1C[C@H](N)[C@H](O)[C@H](C)O1` [doxorubicin], under setting [1], the “amount of drug eluted over the first day” value is on record as 24.5 mg and the “percent of drug eluted over the first day” value is 65%.
For `CCc1c2c(nc3ccc(OC(=O)N4CCC(N5CCCCC5)CC4)cc13)-c1cc3c(c(=O)n1C2)COC(=O)[C@]3(O)CC` [irinotecan], under setting [2], the “amount of drug eluted over the first day” value is reported as “over 45 mg” and the “percent of drug eluted over the first day” value stood at 95%.
